≈ marks a conversion by molar mass, not a printed value. Read-outs that look alike come from different tables or passages of the source. Starred links: 1 amine or outer side, 2 acyl side, 3 side chain; linkers in the order of their positions; H or OH if unused. Positions of bridges follow the written chain, without caps; N, C: chain ends. Residues, ends and D or L forms follow the SMILES beside them. *: point of attachment. C20 diacid = O=C(O)CCCCCCCCCCCCCCCCCCC(=O)*; γGlu = O=C(O)[C@H](CCC(=O)[*:2])N[*:1]
Key:
[1] = target: T1, human amylin receptor (amylin 3(a) receptor: human calcitonin receptor + RAMP-3) (Homo sapiens, UniProt O60896+P30988); experiment: Assay (II)a functional CRE-luciferase assay, human amylin receptor; assay type: cell-based; conditions: Table 2; BHK amylin 3(a)-receptor/CRE-luc cells
T1 construct: expressed in transfected cells; host or cells: BHK570
T1 sequence (P30988 25-474): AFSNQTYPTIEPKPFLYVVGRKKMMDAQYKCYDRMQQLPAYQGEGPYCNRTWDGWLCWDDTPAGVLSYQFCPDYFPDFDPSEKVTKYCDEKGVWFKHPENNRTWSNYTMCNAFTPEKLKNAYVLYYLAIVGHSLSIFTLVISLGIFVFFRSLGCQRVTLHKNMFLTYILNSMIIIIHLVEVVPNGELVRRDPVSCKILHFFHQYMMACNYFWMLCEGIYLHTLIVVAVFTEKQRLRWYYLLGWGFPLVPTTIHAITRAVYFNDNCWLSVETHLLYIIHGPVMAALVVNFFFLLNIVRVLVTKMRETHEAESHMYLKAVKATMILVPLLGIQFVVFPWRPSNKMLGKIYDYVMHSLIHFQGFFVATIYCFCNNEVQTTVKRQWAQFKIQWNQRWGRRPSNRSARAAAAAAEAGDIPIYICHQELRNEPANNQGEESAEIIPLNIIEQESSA
T1 sequence (O60896 24-148 partner): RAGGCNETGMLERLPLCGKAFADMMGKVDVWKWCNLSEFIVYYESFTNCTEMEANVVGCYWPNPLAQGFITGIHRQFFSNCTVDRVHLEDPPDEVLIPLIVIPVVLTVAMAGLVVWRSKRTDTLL

[2] = target: T2, human calcitonin receptor (Homo sapiens, UniProt P30988); experiment: Assay (II)a functional CRE-luciferase assay, human calcitonin receptor; assay type: cell-based; conditions: Table 7; human calcitonin (CTa) receptor
T2 construct: expressed in transfected cells; host or cells: BHK570
T2 sequence (P30988 25-474): T1 sequence (P30988 25-474)

[3] = Assay (IV) determination of solubility; assay type: physicochemical
Procedure, shortened: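 Solubility is measured across pH 3.0–8.0 by mixing a ~500 nmol/ml aqueous polypeptide stock 1:1 with 100 mM glycylglycine or bistrispropane buffers. Samples stand 18 hours at room temperature, then are centrifuged and the soluble concentration is determined by HPLC.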

[4] = Assay (III) ThT fibrillation assay for physical stability; assay type: physicochemical; conditions: ThT fibrillation assay
Procedure, shortened: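 Freshly prepared formulations, pH-adjusted, with 1 μM ThT; four or eight replicates incubated at 37 °C under 960 rpm orbital shaking. Fluorescence (ex 444/em 485 nm) read every 20 min; […]. Peptide concentration measured by RP-HPLC before and after the run.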

[5] = bistrispropane buffer, pH 6, pH 6.0, read-out: Solubility pH 6.0
[6] = bistrispropane buffer, pH 7.5, pH 7.5, read-out: Solubility pH 7.5
[7] = bistrispropane buffer, pH 8, pH 8.0, read-out: Solubility pH 8.0
[8] = glycylglycine buffer, pH 3, pH 3.0, read-out: Solubility pH 3.0
[9] = glycylglycine buffer, pH 4, pH 4.0, 18 hours at room temperature, Table 2, read-out: Solubility pH 4.0
[10] = glycylglycine buffer, pH 4, pH 4.0, read-out: Solubility pH 4.0
[11] = glycylglycine buffer, pH 5, pH 5.0, read-out: Solubility pH 5.0
[12] = bistrispropane buffer, pH 6.5, pH 6.5, read-out: Solubility pH 6.5

EC50 [1]	EC50 [2]	ThT pH 4.0 lag time (h) [4]	solubility at 18 h [3, 5]	solubility at 18 h [3, 6]	solubility at 18 h [3, 7]	solubility at 18 h [3, 8]	solubility at 18 h [3, 9]	solubility at 18 h [3, 10]	solubility at 18 h [3, 11]	solubility at 18 h [3, 12]	other results	SMILES
0.272 nM	0.198 nM	13 h									solubility at 18 h ([3]; 18 h, pH 7, read-out: Solubility pH 7.0): 0 µM; solubility at 18 h ([3]; 18 h, pH 7.5, read-out: Solubility pH 7.5): 0 µM; solubility at 18 h ([3]; pH 3, Solubility pH 3.0): > 200 µM; solubility at 18 h ([3]; pH 4, Solubility pH 4.0): > 200 µM; solubility at 18 h ([3]; pH 4, Solubility pH 4.0 (μM)): > 200 µM; solubility at 18 h ([3]; pH 5, Solubility pH 5.0): > 200 µM; solubility at 18 h ([3]; pH 6, Solubility pH 6.0): > 200 µM; solubility at 18 h ([3]; pH 6.5, Solubility pH 6.5): 4 µM (≈ 19.2 µg/mL); solubility at 18 h ([3]; pH 8, Solubility pH 8.0): 13 µM (≈ 62.4 µg/mL)	CC[C@H](C)[C@H](NC(=O)[C@@H]1CCCN1C(=O)CNC(=O)[C@H](Cc1ccccc1)NC(=O)[C@H](CC(N)=O)NC(=O)[C@H](CC(N)=O)NC(=O)[C@H](CO)NC(=O)[C@H](CO)NC(=O)[C@H](Cc1c[nH]cn1)NC(=O)[C@H](Cc1c[nH]cn1)NC(=O)[C@H](CC(C)C)NC(=O)[C@H](Cc1ccccc1)NC(=O)[C@H](CCC(=O)O)NC(=O)[C@H](C)NC(=O)[C@H](CC(C)C)NC(=O)[C@H](CCCNC(=N)N)NC(=O)[C@H](CCC(N)=O)NC(=O)[C@@H](NC(=O)[C@H](C)NC(=O)[C@@H]1CSSC[C@H](NC(=O)[C@H](Cc2c[nH]cn2)NC(=O)[C@H](Cc2c[nH]cn2)NC(=O)[C@H](Cc2c[nH]cn2)NC(=O)CC[C@H](NC(=O)CCCCCCCCCCCCCCCCCCC(=O)O)C(=O)O)C(=O)N[C@@H](CC(N)=O)C(=O)N[C@@H]([C@@H](C)O)C(=O)N[C@@H](C)C(=O)N[C@@H]([C@@H](C)O)C(=O)N1)[C@@H](C)O)C(=O)N[C@@H](CC(C)C)C(=O)N1CCC[C@H]1C(=O)N[C@@H](Cc1c[nH]cn1)C(=O)N[C@H](C(=O)N[C@@H](CC(N)=O)C(=O)N[C@H](C(=O)NCC(=O)N[C@@H](CO)C(=O)N[C@@H](Cc1c[nH]cn1)C(=O)N[C@H](C(=O)N[C@@H](Cc1ccc(O)cc1)C(N)=O)[C@@H](C)O)C(C)C)[C@@H](C)O [Example 34, N-alpha-[(S)-4-Carboxy-4-(19-carboxynonadecanoylamino)butyryl]-His-His-[His1,Glu14,His17,His29,His35]-pramlintide] ({C20 diacid-γGlu}-HHHCNTATCATQRLAEFLHHSSNNFGPILPHTNVGSHTY-NH2; disulfide 4-9 (inferred))
0.286 nM	0.801 nM	1.3 h	17 µM (≈ 81 µg/mL)	9 µM (≈ 42.9 µg/mL)	66 µM (≈ 314 µg/mL)	> 200 µM	> 200 µM	> 200 µM	194 µM (≈ 924 µg/mL)			CC[C@H](C)[C@H](NC(=O)[C@@H]1CCCN1C(=O)CNC(=O)[C@H](Cc1ccccc1)NC(=O)[C@H](CC(N)=O)NC(=O)[C@H](CC(N)=O)NC(=O)[C@H](CO)NC(=O)[C@H](CO)NC(=O)[C@H](Cc1c[nH]cn1)NC(=O)[C@H](Cc1c[nH]cn1)NC(=O)[C@H](CC(C)C)NC(=O)[C@H](Cc1ccccc1)NC(=O)[C@H](CCC(=O)O)NC(=O)[C@H](C)NC(=O)[C@H](CC(C)C)NC(=O)[C@H](CCCNC(=N)N)NC(=O)[C@H](CCC(N)=O)NC(=O)[C@@H](NC(=O)[C@H](C)NC(=O)[C@@H]1CSSC[C@H](NC(=O)[C@H](Cc2c[nH]cn2)NC(=O)[C@H](Cc2c[nH]cn2)NC(=O)[C@H](Cc2c[nH]cn2)NC(=O)CC[C@H](NC(=O)CCCCCCCCCCCCCCCCCCC(=O)O)C(=O)O)C(=O)N[C@@H](Cc2c[nH]cn2)C(=O)N[C@@H]([C@@H](C)O)C(=O)N[C@@H](C)C(=O)N[C@@H]([C@@H](C)O)C(=O)N1)[C@@H](C)O)C(=O)N[C@@H](CC(C)C)C(=O)N1CCC[C@H]1C(=O)N1CCC[C@H]1C(=O)N[C@H](C(=O)N[C@@H](CC(N)=O)C(=O)N[C@H](C(=O)NCC(=O)N[C@@H](CO)C(=O)N[C@@H](CC(N)=O)C(=O)N[C@H](C(=O)N[C@@H](Cc1ccc(O)cc1)C(N)=O)[C@@H](C)O)C(C)C)[C@@H](C)O [Example 35, N-alpha-[(S)-4-Carboxy-4-(19-carboxynonadecanoylamino)butyryl]-His-His-[His1,His3,Glu14,His17]-pramlintide] ({C20 diacid-γGlu}-HHHCHTATCATQRLAEFLHHSSNNFGPILPPTNVGSNTY-NH2; disulfide 4-9)
0.167 nM	0.191 nM	1.3 h	> 200 µM	2 µM (≈ 9.56 µg/mL)	60 µM (≈ 287 µg/mL)	> 200 µM	> 200 µM	> 200 µM	> 200 µM	14 µM (≈ 66.9 µg/mL)		CC[C@H](C)[C@H](NC(=O)[C@@H]1CCCN1C(=O)CNC(=O)[C@H](Cc1ccccc1)NC(=O)[C@H](CC(N)=O)NC(=O)[C@H](CC(N)=O)NC(=O)[C@H](CO)NC(=O)[C@H](CO)NC(=O)[C@H](Cc1c[nH]cn1)NC(=O)[C@H](Cc1c[nH]cn1)NC(=O)[C@H](CC(C)C)NC(=O)[C@H](Cc1ccccc1)NC(=O)[C@H](CCC(=O)O)NC(=O)[C@H](C)NC(=O)[C@H](CC(C)C)NC(=O)[C@H](CCCNC(=N)N)NC(=O)[C@H](CCC(N)=O)NC(=O)[C@@H](NC(=O)[C@H](C)NC(=O)[C@@H]1CSSC[C@H](NC(=O)[C@H](Cc2c[nH]cn2)NC(=O)[C@H](Cc2c[nH]cn2)NC(=O)[C@H](Cc2c[nH]cn2)NC(=O)CC[C@H](NC(=O)CCCCCCCCCCCCCCCCCCC(=O)O)C(=O)O)C(=O)N[C@@H](CC(N)=O)C(=O)N[C@@H]([C@@H](C)O)C(=O)N[C@@H](C)C(=O)N[C@@H]([C@@H](C)O)C(=O)N1)[C@@H](C)O)C(=O)N[C@@H](CC(C)C)C(=O)N1CCC[C@H]1C(=O)N[C@@H](Cc1c[nH]cn1)C(=O)N[C@H](C(=O)N[C@@H](CC(N)=O)C(=O)N[C@H](C(=O)NCC(=O)N[C@@H](CO)C(=O)N[C@@H](CC(N)=O)C(=O)N[C@H](C(=O)N[C@@H](Cc1ccc(O)cc1)C(N)=O)[C@@H](C)O)C(C)C)[C@@H](C)O [Example 36, N-alpha-[(S)-4-Carboxy-4-(19-carboxynonadecanoylamino)butyryl]-His-His-[His1,Glu14,His17,His29]-pramlintide] ({C20 diacid-γGlu}-HHHCNTATCATQRLAEFLHHSSNNFGPILPHTNVGSNTY-NH2; disulfide 4-9 (inferred))
0.248 nM	0.439 nM	7 h	> 200 µM	> 200 µM	> 200 µM	> 200 µM	> 200 µM	> 200 µM	> 200 µM	> 200 µM	solubility at 18 h ([3]; bistrispropane buffer, pH 7, pH 7.0, 18 hours at room temperature, Table 3, read-out: Solubility pH 7.0): > 200 µM; solubility at 18 h ([3]; bistrispropane buffer, pH 7, pH 7.0, read-out: Solubility pH 7.0): > 200 µM	CC[C@H](C)[C@H](NC(=O)[C@@H]1CCCN1C(=O)CNC(=O)[C@H](Cc1ccccc1)NC(=O)[C@H](CC(N)=O)NC(=O)[C@H](CC(N)=O)NC(=O)[C@H](CO)NC(=O)[C@H](CO)NC(=O)[C@H](Cc1c[nH]cn1)NC(=O)[C@H](Cc1c[nH]cn1)NC(=O)[C@H](CC(C)C)NC(=O)[C@H](Cc1ccccc1)NC(=O)[C@H](CCC(=O)O)NC(=O)[C@H](C)NC(=O)[C@H](CC(C)C)NC(=O)[C@H](CCCNC(=N)N)NC(=O)[C@H](CCC(N)=O)NC(=O)[C@@H](NC(=O)[C@H](C)NC(=O)[C@@H]1CSSC[C@H](NC(=O)[C@H](Cc2c[nH]cn2)NC(=O)[C@H](CCC(=O)O)NC(=O)CC[C@H](NC(=O)CCCCCCCCCCCCCCCCCCC(=O)O)C(=O)O)C(=O)N[C@@H](CC(N)=O)C(=O)N[C@@H]([C@@H](C)O)C(=O)N[C@@H](C)C(=O)N[C@@H]([C@@H](C)O)C(=O)N1)[C@@H](C)O)C(=O)N[C@@H](CC(C)C)C(=O)N1CCC[C@H]1C(=O)N1CCC[C@H]1C(=O)N[C@H](C(=O)N[C@@H](CC(N)=O)C(=O)N[C@H](C(=O)NCC(=O)N[C@@H](CO)C(=O)N[C@@H](CC(N)=O)C(=O)N[C@H](C(=O)N[C@@H](Cc1ccc(O)cc1)C(N)=O)[C@@H](C)O)C(C)C)[C@@H](C)O [Example 40, N-alpha-[(S)-4-Carboxy-4-(19-carboxynonadecanoylamino)butyryl]-Glu-[His1,Glu14,His17]-pramlintide] ({C20 diacid-γGlu}-EHCNTATCATQRLAEFLHHSSNNFGPILPPTNVGSNTY-NH2; disulfide 3-8 (inferred); C-terminus assumed)
